Test results as given in publication PMC9531372, “Metabolic profiling and pharmacokinetic studies of Baihu-Guizhi decoction in rats by UFLC-Q-TOF–MS/MS and UHPLC-Q-TRAP-MS/MS” (Chinese Medicine, 2022).

Test: in vivo
Conditions: for AUC(0-inf) / AUC(0-t) / CL / Cmax / MRT inf / MRT last / Vd / half-life / Tmax: male, Lewis, rat, po
Source text: Male Lewis rats, weighing 200–240 g, were purchased from Beijing Charles River Experimental Animals Co. Ltd. (Beijing, China). […] Animal experiments were approved and supervised by the National Institutes of Health guide for the care and use of Laboratory animals. Every effort was made to minimize both the employed animal numbers as well as the potential discomfort of the animals throughout the study.
For single administration, rats were orally administrated with BHGZD powder at dose of 21.4 g/kg, which was equivalent to two-fold of clinical dose in human. […] For multiple administration, rats were intragastrically administered BHGZD (21.4 g/kg/day) once a day, for continuous 12 days. […] Serum was freshly prepared by centrifugation and stored at – 80 ℃ till analysis.
Quantification for five absorbed compounds of BHGZD in rat serum were achieved by using a Shimadzu ultra-high-performance liquid chromatography tandem ion trap quadrupole Q-TRAP 6500 plus mass spectrometry (UHPLC-Q-TRAP-MS/MS). Sample preparations were described above.
Chromatographic separation was carried out on a Poroshell 120 EC-C18 column (50 × 3.0 mm, 2.7 μm, Agilent, USA) with a flow rate 0.3 mL/min.
The optimized parameters for the mass spectrometer were set as follows: curtain gas, 35 psi; collision gas, medium; ionspray voltage, 4500 V; temperature, 550 °C; ion source gas 1 and 2, 55 psi. […] Data acquisition and analysis were achieved by OS-Q software (version 1.4.1.20719, AB Sciex, USA). Pharmacokinetic analysis was conducted by Drug and Statistic software (version 3.0, Shanghai, China).
The developed methodology was then applied for the in vivo pharmacokinetic evaluations of these five absorbed components. After single or multiple gavages of BHGZD, rat serum was collected at indicated time points, and the concentrations of five analyte were quantified accordingly.

[1] = serum, 21.4 g/kg, rat serum, BHGZD 21.4 g/kg oral gavage, single dose, n = 8, mean ± SEM

AUC(0-inf) (in vivo, 21.4 g/kg) | AUC(0-t) (in vivo, 21.4 g/kg) | CL (in vivo, 21.4 g/kg) | Cmax (in vivo, 21.4 g/kg) | MRT inf (in vivo, 21.4 g/kg) | MRT last (in vivo, 21.4 g/kg) | Vd (in vivo, 21.4 g/kg) | half-life (in vivo, 21.4 g/kg) | Tmax (in vivo, 21.4 g/kg) | AUC(0-inf) (serum, 21.4 g/kg) | AUC(0-t) (serum, 21.4 g/kg) | Cmax (serum, 21.4 g/kg) | MRT inf (serum, 21.4 g/kg) | MRT last (serum, 21.4 g/kg) | half-life (serum, 21.4 g/kg) | Tmax (serum, 21.4 g/kg, rat serum after BHGZD gavage, regimen not given) | Tmax [1] | Tmax (serum, 21.4 g/kg/day, rat serum, BHGZD 21.4 g/kg/day gavage once a day for 12 days, multiple dose, sampled day 12, n = 8, mean ± SEM) | SMILES | pattern of absorption and elimination in serum (rat serum, single or multiple gavages of BHGZD)
298 ± 298 ng·h/mL | 266 ± 306 ng·h/mL | 228,709 ± 238,817 L/h/kg | 48.1 ± 52.7 ng/mL | 6.72 ± 6.64 h | 3.6 ± 0.75 h | 1,049,685 ± 1,125,516 L/kg | 3.64 ± 4.82 h | 2.56 ± 1.68 h | – | – | – | – | – | – | – | – | – | O=c1c2cc(O)c(O)cc2oc2cc(O)c([C@@H]3O[C@H](CO)[C@@H](O)[C@H](O)[C@H]3O)c(O)c12 [Mangiferin] | –
91.8 ± 44.2 ng·h/mL | 67.3 ± 36.8 ng·h/mL | 288,330 ± 150,321 L/h/kg | 15.6 ± 8.97 ng/mL | 5.83 ± 1.42 h | 5.06 ± 1.37 h | 867,518 ± 160,982 L/kg | 2.99 ± 0.82 h | 5.88 ± 2.85 h | – | – | – | – | – | – | – | – | – | CC1(C)[C@@H](O[C@H]2O[C@H](C(=O)O)[C@@H](O)[C@H](O)[C@H]2O[C@@H]2O[C@H](C(=O)O)[C@@H](O)[C@H](O)[C@H]2O)CC[C@]2(C)[C@H]3C(=O)C=C4[C@@H]5C[C@@](C)(C(=O)O)CC[C@]5(C)CC[C@@]4(C)[C@]3(C)CC[C@@H]12 [Glycyrrhizic acid] | –
– | – | – | – | – | – | – | – | – | 307 ± 120 ng·h/mL | 110 ± 127 ng·h/mL | 53.3 ± 32.6 ng/mL | 10.5 ± 12.5 h | 3.66 ± 1.03 h | 2.36 ± 1.03 h | ~0.3 h | 0.37 ± 0.35 h | – | O=C(O)/C=C/c1ccccc1 [Cinnamic acid] | –
– | – | – | – | – | – | – | – | – | 45.3 ± 13.9 ng·h/mL | 35.6 ± 7.99 ng·h/mL | 5.41 ± 1.23 ng/mL | 9.92 ± 2.73 h | 7.54 ± 1.15 h | 4.98 ± 1.74 h | – | 6.38 ± 1.69 h | 4.62 ± 2.13 h | C[C@H]1CC[C@@]2(OC1)O[C@H]1C[C@H]3[C@@H]4CC[C@@H]5C[C@@H](O[C@@H]6O[C@H](CO)[C@H](O)[C@H](O)[C@H]6O[C@@H]6O[C@H](CO)[C@@H](O)[C@H](O)[C@H]6O)CC[C@]5(C)[C@H]4CC[C@]3(C)[C@H]1[C@@H]2C [Timosaponin AIII] | dual-peak response with prolonged pattern of absorption and elimination
